The values below are quoted from earlier work in patent US6593300B1, “(3R)-3-amino-4-carboxybutyraldehyde derivatives inhibiting the release of interleukin-1/beta” (Gyogyszerkutato Intezet Kft., priority 1997, dated 2003).

Data set [1] concerns the target T1, ICE (IL-1β converting enzyme) (Homo sapiens, UniProt P29466).
T1 sequence (P29466 120-297): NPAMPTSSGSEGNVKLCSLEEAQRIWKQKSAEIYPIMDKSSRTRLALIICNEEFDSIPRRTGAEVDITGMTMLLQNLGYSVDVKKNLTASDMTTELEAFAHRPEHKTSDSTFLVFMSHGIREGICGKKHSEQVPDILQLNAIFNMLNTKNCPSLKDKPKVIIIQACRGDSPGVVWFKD
T1 sequence (P29466 317-404): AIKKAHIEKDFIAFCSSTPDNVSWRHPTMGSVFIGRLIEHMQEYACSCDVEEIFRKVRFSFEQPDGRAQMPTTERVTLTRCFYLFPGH
The settings on record: literature reports.

A further data set has as its target T2, ICE (Mus musculus, UniProt P29452).
T2 construct: in the mouse, in the “tissue chamber” model as well as in lipopolysaccharide (LPS) induced fever or septic shock models; host or cells: mouse (whole animal, endogenous enzyme)
T2 sequence (P29452 119-296 limits assumed): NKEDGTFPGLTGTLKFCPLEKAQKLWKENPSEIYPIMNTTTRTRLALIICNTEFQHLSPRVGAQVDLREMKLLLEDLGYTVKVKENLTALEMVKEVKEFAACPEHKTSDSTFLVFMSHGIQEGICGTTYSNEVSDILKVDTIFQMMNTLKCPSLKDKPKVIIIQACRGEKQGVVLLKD
T2 sequence (P29452 315-402 limits assumed): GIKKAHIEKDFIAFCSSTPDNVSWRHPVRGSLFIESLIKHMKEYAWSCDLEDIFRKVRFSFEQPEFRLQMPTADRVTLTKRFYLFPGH
The following applies: "tissue chamber" model, LPS induced fever or septic shock models.

Consider `O=C(O)CC(CC(=O)COC(=O)c1c(Cl)cccc1Cl)NC(=O)OCc1ccccc1` (centres unmarked) [Z-AhAsp-CH2DCB, Z-NH—CH(CH2COOH)—CH2—CO—CH2DCB], for which the ICE inhibiting effect entry in data set [1] was “ineffective”.

With `O=c1oc(Cl)c(Cl)c2ccccc12` [3,4-dichloro-isocoumarine], the ICE inhibiting effect entry in data set [1] is given as “inhibited”.

Take `CC(C)C[C@H](NC(=O)[C@H]1O[C@@H]1C(=O)O)C(=O)NCCCCN=C(N)N` [Example E64]: in data set [1], the ICE inhibiting effect result was “not inhibited”.

Regarding “Ac-Tyr-Val-Ala-Asp-H: first reversible inhibitor of ICE, tetrapeptide aldehyde”, the in vivo efficacy entry with ICE is on record as “confirmed”.

With `O=C(O)C[C@H](NC(=O)OCc1ccccc1)C(=O)COC(=O)c1c(Cl)cccc1Cl` [Z-Asp-CH2DCB, Z-NH—CH(CH2COOH)—CO—CH2DCB], the ICE inhibiting effect result in data set [1] is on record as “significant ICE inhibiting effect”.
